Experimental data published in patent publication US20240116898A1, “NOVEL GLUTAMINYL CYCLASE INHIBITORS AND THE USE THEREOF IN TREATMENT OF VARIOUS DISEASES” (LTD "VALENTA-INTELLEKT", priority 2017, published 2024).

Key:
[1] = tested on: formaldehyde-induced pharyngitis in rats; test: Rat model of non-infectious pharyngitis (Evans blue exudation); assay type: in vivo
Method: The rats were anesthetized with sodium thiopentone (50 mg/kg, intraperitoneally) and a cannula with a RenaSil® silicone rubber tube (SIL 037, Braintree Scientific, Inc., Braintree, MA) was inserted into the external jugular vein using a heparinized saline solution (40 U/ml).
The Evans Blue dye (Evans Blue, EB) (30 mg/kg) was administered to all the animals intravenously through a catheter; 10 minutes after the EB dye was administered, a 30% formalin solution was applied to the surface of the pharyngeal mucosa as follows: the tongue was slightly pulled out, the pharyngeal area was opened deep in the mouth with blunt forceps and gently, using a sterile cotton pad, the formation solution (50 μl) was applied for 5 seconds each time it is applied. In the intact group thephysiologicla solution was used.
60 minutes after the application of 30% formalin solution, the animals were euthanized by the exsanguination. The head of each rat was perfused with the heparinized saline solution (40 U/ml) to remove the intravascular EB dye.
The degree of the inflammation was assessed by the exudation test of the Evans blue (EB) dye. […] The amount of dye in the fabric was calculated using the standard curve for the Evans blue dye, and was expressed in micrograms of the dye per gram of wet fabric weight (μg/g).
The formaldehyde solution with a concentration of 30% was adminstered to the control group.

[2] = tested on: thermal pain irritation hot plate in Balb/c mice; conditions: mouse, in vivo
Method: The model of thermal pain irritation “hot plate” was carried out according to the standard procedure [Barrot M. Tests and models of nociception and pain in rodents. […] After 1 hour after the administration of the preparation, the “hot plate” test was carried out. To conduct the “hot plate” test, the mice were placed on the hot plate, the temperature (+55±1° C.) of which is constant.
The time of first manifestations of the pain response in mice (paw licking, jumping) was registered and the mean latent time of the threshold of pain sensitivity (TPS, sec) in each group was calculated.

[3] = tested on: specific pain reaction by chemical irritation of the peritoneum in Balb/c mice; test: Abdominal constriction test (acetic acid) in mice; assay type: in vivo, mouse
Method: The model of the specific pain reaction by the method of chemical stimulation of peritoneum (“abdominal constriction” test) was carried out according to the standard procedure. To conduct the “abdominal constriction” test, Balb/c mice were intraperitoneally administered with 1% acetic acid in a volume of 10 ml per kg of the animal body weight. […] A quantity of constrictions (convulsive twitching of the abdominal muscles accompanied with stretching hind quarters and arching) was evaluated 15 minutes after the administration of acetic acid.

[4] = tested on: carrageenan-induced rat paw edema; test: Carrageenan-induced rat paw edema; assay type: in vivo; conditions: 8 mg/kg, 2 hours after carrageenan
Method: Experiments were performed on male white nonlinear rats weighing 250-270 g.

[5] = 0.3 mg/kg intragastric 1 hour before acetic acid

Q: For O=C(NCCc1cnc[nH]1)C(=O)NCCc1cnc[nH]1 [Compound I, N,N′-bis[2-(1H-imidazol-4-yl)ethyl]oxalamide], which “Decrease of the concentration of dye in the tissue compared to the control” value ([1]; 6 mg/kg) is on record?
A: 2.8 times

Q: What about the “Decrease of the concentration of dye in the tissue compared to the control” value ([1]; 18 mg/kg) of the same compound?
A: 6.4 times

Q: What about the “Duration of the pharmacological effect” value [2] of the same compound?
A: at least 24 hours

Q: Which “Quantity of constrictions for 15 minutes” value [3, 5] does the source give for CC(C)(CC(=O)NCCc1cnc[nH]1)CC(=O)NCCc1cnc[nH]1 [Compound IX, N,N′-bis[2-(1H-imidazol-4-yl)ethyl]-3,3-dimethylpentanediamide] here?
A: 11.6 ± 3.5

Q: How did the “Quantity of constrictions for 15 minutes” value [3, 5] turn out when O=C(CCCCC(=O)NCCc1cnc[nH]1)NCCc1cnc[nH]1 [Compound VII, N,N′-bis[2-(1H-imidazol-4-yl)ethyl]adipamide] was run?
A: 17.6 ± 2.81

Q: Which “Quantity of constrictions for 15 minutes” value ([3]; 15 mg/kg) does the source give for O=C(c1ccccc1)c1ccc2n1CCC2C(=O)O (stereo not drawn) [Ketorol, reference compound] here?
A: 23.60 ± 1.87

Q: With O=C(O)Cc1ccccc1Nc1c(Cl)cccc1Cl [Diclofenac, reference compound] as the compound, how does the “Effect on pharyngitis inflammation (dye concentration)” value ([1]; 8 mg/kg) read?
A: no effect

Q: And the “The concentration of the dye in the tissue” value ([1]; 8 mg/kg intragastric 24 h and 1 h before formaldehyde)?
A: 0.112 ± 0.031 µg/mg

Q: And the “Inhibition of edema growth” value [4]?
A: 42%
